Results published in paper PMC3904387 (ACS medicinal chemistry letters, 2013).

Experiments:
[1] = tested on: Madin-Darby canine kidney (MDCK) cells
[2] = tested on: PR8 H1N1 infected MDCK cells; format: cell-based

SMILES: O=C(N/N=C\c1cccc(Cl)c1Cl)c1ccc(O)c(O)c1 [compound 6]
- cytotoxicity (in words) [1]: cytotoxic

SMILES: Cc1ccccc1/C=N\NC(=O)c1ccc(O)c(O)c1 [compound 7]
- cytotoxicity (in words) [1]: lacking cytotoxicity
- antiviral activity (in words) [2]: lacking cytotoxicity and antiviral activity

SMILES: COc1ccccc1N1CCN(/N=C/c2ccc(O)c(O)c2)CC1 [compound 8]
- cytotoxicity (in words) [1]: cytotoxic

SMILES: C/C(=N/NC(=O)c1ccc(O)c(O)c1)c1ccc(C)cc1 [compound 9]
- cytotoxicity (in words) [1]: lacks antiviral activity and cytotoxicity
- antiviral activity (in words) [2]: lacks antiviral activity

SMILES: O=C1CC2(CCCCC2)Oc2c1ccc(O)c2O [compound 11]
- cytotoxicity (in words) [1]: lack cytotoxicity
- antiviral activity (in words) [2]: lack cytotoxicity and antiviral activity

SMILES: CC(=O)N1CCC2(CC1)CC(=O)c1ccc(O)c(O)c1O2 [compound 12]
- cytotoxicity (in words) [1]: lack cytotoxicity
- antiviral activity (in words) [2]: lack cytotoxicity and antiviral activity

SMILES: O=C(Cc1ccccc1Cl)c1ccc(O)c(O)c1O [compound 14]
- cytotoxicity (in words) [1]: neither cytotoxic
- antiviral activity (in words) [2]: neither cytotoxic nor active against virally infected cells
